pEC50, pIC50: −log10 of the molar value.
Assays:
[1] = tested on: Chikungunya Virus (CHIKV) strain LR2006-OPY1 with GFP modification (CHIK 5'LR); test: microbe, parasite or virus in culture; assay type: cell-based; conditions: HEK-293T, infected HEK293T cells; for inhibition at 1 µM: compounds at 1 μM, MOI 0.1, 22 h, mean of 2 experiments, values above 100 lowered to 100, read-out: % CHIKV Inhibition Mean (n = 2); for pIC50: second round of experiments, range stated for listed compounds, read-out: IC50 (CHIKV inhibition)
Experimental: The ability of the compounds to inhibit viral replication was assessed with an experiment in which infected cells were treated by compounds of formula (Ie) at 1 μM. As a positive control for inhibition of Chikungunya, Ribavirin was used. Toxicity of the compounds was assessed in parallel.
Human embryonic kidney cells 293T (HEK293T, CRL-11268) were maintained in Dulbecco's modified Eagle's Medium (DMEM, 31966-021, Thermo Fisher Scientific) supplemented with 10% of fetal bovine serum (FBS), penicillin and streptomycin. After removal of the medium, cells were washed with Ca^2+ and Mg^2+-free salt solution to remove all traces of serum. After aspiration of wash solution, cells were dissociated with 0.25% Trypsin-EDTA solution and incubated 30 s at least in 37° C. incubator. Concentration of cell suspension was determined by an automatic cell counter (EVE, NanoEntek) and, if needed, adjusted to 0.33×10^6 cells/mL with DMEM medium supplemented with 10% FBS.
100 μL of the cell suspension were dispatched in a ViewPlate-96 Black (6005182, PerkinElmer) and in a transparent 96-well cell culture plate (655180, Greiner bio-one). After an incubation for 24 h at 37° C. under 5% of CO2, compounds were added at the proper concentration.
An intermediate dilution was prepared with DMSO (D8418, Sigma) at 2 mM in a 96-well V-bottom microplate from the stock solution:
Mix 1 μL of the 50 mM stock library in 25 μL of DMSO.
Mix 2 μL of the 25 mM stock library in 25 μL of DMSO.
An intermediate dilution was prepared with DMSO (D8418, Sigma) at 25 mM in a 96-well V-bottom microplate from the stock solution:
Mix 2 μL of the 50 mM stock library in 2 μL of DMSO.
Perform serial dilution in 2 μL of DMSO 13 times to reach 0.0015 mM. Proceed as follows in table III:
For both screen and determination of IC50, 1 μL of each solution was added in a 1 mL Masterblock 96 wells (Greiner bio-one, 780261) containing 1 mL of DMEM medium. As a positive control, 5 μL of a 80 mM Ribavirin solution (R9644, Sigma) is added to 1 mL of DMEM. On the other hand, DMSO is used as a negative control.
[…]. Vector Borne Zoonotic Dis. 2006; 6(4)). This modified virus was used to infect cells at MOI 0.1. […].
Medium was removed after 22 h at 37° C. under 5% of CO2 and cells were washed as described above. 60 μL of RIPA buffer (50 mM Tris-HCl pH8, 100 mM NaCl, 1 mM MgCl2, 1% Triton X-100) was added to cells and incubated for at least 20 min before reading fluorescence signal. Pierce 660 nm Protein Assay Reagent (22660, Thermo scientific) was used to normalize fluorescence signal by protein quantity.
• A first round of experiments has been performed wherein the results are expressed as inhibition percentage, which is calculated as follows, through the following steps: • 1. Fluorescence intensity (FI)/Absorbance 660 nm (A660)=A
This ratio allows considering the infection (GFP virus) to the protein amount. • 2. A′=A−background noise of non-infected plate, • 3. B=Fluorescence intensity (FI)/Absorbance 660 nm (A660) of infected but non treated plates, • 4. C=A′/B, which is then converted as the percentage of infection after treatment, compared to non-treated sample, and subsequently as the infection percentage. For instance, a value of 100 in Table IV here below means that, after treatment, the signal attributed to GFP fluorescence is abolished, which is correlated to the absence of infection. • 5. C′=100−C
This value corresponds to the inhibition's percentage.
The following Table IV encompasses said C′ value for some compounds, as calculated above with a mean of 2 experiments, and corresponding standard deviation.
Some values were originally above 100. In these cases, the value has been lowered to 100. This means that some molecules also have an impact on the viability of the cells. In other words, the A value may be lower than the background noise.
Moreover, for each measure, the test was performed with Ribavirin as control. The value of the inhibition percentage was checked, giving 100%.

RSV A2 = test: RSV inhibition (cytopathic effect inhibition) using Viral ToxGlo assay in HEp-2 cells; assay type: cell-based; conditions: human respiratory syncytial virus, RSV A2, MOI 0.5, HEp-2 cells, 72 h p.i.
Summary of the method: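 HEp-2 cells in EMEM with 2% FBS were infected with RSV A2 at MOI 0.5 immediately after compound (≤1% DMSO) and incubated 72 h at 37 °C. Viral ToxGlo luminescence gave % cytopathic effect inhibition versus virus control, plus cytotoxicity versus cell control; EC50 derived from dose-response.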

DENV-2 strain 16681 = test: DENV-2 inhibition (cytopathic effect inhibition) using Viral ToxGlo assay in A549 cells; assay type: cell-based, Dengue 2 virus; conditions: Dengue virus, DENV2, 120 h, compounds at 10 μM, MOI 0.5, 5 days p.i., read-out: % DENV-2 Inhibition Mean (n = 3)
Experimental: Protocol for Screening Antiviral Compounds for DENV-2 Inhibition and Cytotoxicity Using Viral ToxGlo Assay
A549 cells were maintained in Dulbecco's Modified Eagle Medium (DMEM) supplemented with 10% fetal bovine serum, 100 U/ml penicillin and 100 μg/ml streptomycin. For the purposes of the screening assay they were grown to 90% confluency, trypsinized and recovered. The trypsin was neutralised with cell culture media and cells were centrifuged at 150×g for 5 minutes before discarding the supernatant and resuspending cell pellet in assay media (DMEM supplemented with 2% fetal bovine serum and 100 U/ml penicillin and 100 μg/ml streptomycin). The cells were seeded into 96-well white clear-bottomed cell culture plates at a density of 1.0×10^4 cells/well in 50 μl. For the media/background control column assay media only was added. Cell plates were placed in a humid chamber and incubated overnight at 37° C./5% CO2. After overnight incubation cells were checked for confluency and healthy appearance.
Test compounds were prepared at a final concentration of 10 μM in a maximum DMSO concentration of 1% (final assay concentration maximal 0.1% DMSO) and added to the cell plates in volumes of 10 μl. For cell control and virus control wells the test article solvent only was added. As a positive inhibition control, 7-Deaza-2′-C-methyladenosine was added at 100 μM in 3 wells. Virus (DENV-2 strain 16681) or assay media for cytotoxicity test wells and media/cell control wells was added immediately after test articles at an MOI of 0.5, 40 for 96 well plates respectively. Virus suspension was prepared by thawing DENV-2 frozen stocks and diluting to the required concentration of plaque forming units in assay media.
Cell plates were further incubated inside a humid chamber for 5 days p.i at 37° C./5% CO2. After the incubation period cells were observed under the microscope to check for characteristic cytopathic effect in virus control wells and healthy cells in the cell control wells. After plates were adjusted to room temperature 20 μl Viral ToxGlo (Promega) was added to each well of the 96-well cell plates. Plates were incubated at room temperature for 5 minutes before measuring the luminescence on a spectrophotometer (Envision, PerkinElmer).
DENV-2 inhibition was calculated as percentage of cytopathic effect inhibition relative to the virus control and cytotoxicity as percentage of cell survival relative to cell control wells.

| SMILES | inhibition at 1 µM [1] [%] | pEC50 (RSV A2) | inhibition at 10 µM (DENV-2 strain 16681) [%] | pIC50 [1] |
| --- | --- | --- | --- | --- |
| O=C(NCCC1CCCC1)c1cccc(Nc2ccc(OCc3ccccn3)cc2)c1 [Compound 36, N-(2-cyclopentylethyl)-3-((4-(pyridin-2-ylmethoxy)phenyl)amino)benzamide] | 99 | 6.63 | – | – |
| CC(C)CCNC(=O)c1cccc(Nc2ccc(OCc3ccccn3)cc2)c1 [Compound 37, N-isopentyl-3-((4-(pyridin-2-ylmethoxy)phenyl)amino)benzamide] | 100 | – | – | – |
| Cc1cc(OCc2ccccn2)ccc1Nc1cccc(C(=O)NCCC2CCCC2)c1 [Compound 39, N-(2-cyclopentylethyl)-3-((2-methyl-4-(pyridin-2-ylmethoxy)phenyl)amino)benzamide] | 98 | 6.73 | – | – |
| Cc1cc(Nc2cccc(C(=O)NCCC3CCCC3)c2)ccc1OCc1ccccn1 [Compound 40, N-(2-cyclopentylethyl)-3-((3-methyl-4-(pyridin-2-ylmethoxy)phenyl)amino)benzamide] | 99 | – | 71 | – |
| O=C(NCCC1CCCC1)c1cccc(Nc2ccc(OCc3ccccn3)nc2)c1 [Compound 41, N-(2-cyclopentylethyl)-3-((6-(pyridin-2-ylmethoxy)pyridin-3-yl)amino)benzamide] | 99 | – | – | – |
| COc1cc(Nc2cccc(C(=O)NCCC3CCCC3)c2)ccc1OCc1ccccn1 [Compound 43, N-(2-cyclopentylethyl)-3-((3-methoxy-4-(pyridin-2-ylmethoxy)phenyl)amino)benzamide] | 100 | – | 71 | – |
| Cc1cc(OCc2ccccn2)ccc1Nc1cccc(C(=O)NCCC2CCCCC2)c1 [Compound 47, N-(2-cyclohexylethyl)-3-((2-methyl-4-(pyridin-2-ylmethoxy)phenyl)amino)benzamide] | 96 | 6.74 | – | – |
| O=C(NCCC1CCC1)c1cccc(Nc2ccc(OCc3ccccn3)cc2)c1 [Compound 48, N-(2-cyclobutylethyl)-3-((4-(pyridin-2-ylmethoxy)phenyl)amino)benzamide] | 98 | – | 110 | – |
| O=C(NCCC1CC1)c1cccc(Nc2ccc(OCc3ccccn3)cc2)c1 [Compound 49, N-(2-cyclopropylethyl)-3-((4-(pyridin-2-ylmethoxy)phenyl)amino)benzamide] | 98 | – | 111 | – |
| O=C(NCCC1CCCC1)c1cccc(Nc2ccc(OCc3ccccc3F)cc2)c1 [Compound 50, N-(2-cyclopentylethyl)-3-((4-((2-fluorobenzyl)oxy)phenyl)amino)benzamide] | 100 | – | – | – |
| N#Cc1ccccc1COc1ccc(Nc2cccc(C(=O)NCCC3CCCC3)c2)cc1 [Compound 51, 3-((4-((2-cyanobenzyl)oxy)phenyl)amino)-N-(2-cyclopentylethyl)benzamide] | 100 | – | – | – |
| O=C(NCCC1CCCC1)c1cccc(Nc2ccc(OCc3ccccc3)cc2)c1 [Compound 52, 3-((4-(benzyloxy)phenyl)amino)-N-(2-cyclopentylethyl)benzamide] | 99 | – | – | – |
| O=C(NCCC1CCCC1)c1cccc(Nc2ccc(OCc3ccccn3)c(O)c2)c1 [Compound 53, N-(2-cyclopentylethyl)-3-((3-hydroxy-4-(pyridin-2-ylmethoxy)phenyl)amino)benzamide] | – | – | – | 6.40 to 9.00 |
| Cc1cc(OCc2ccccn2)ccc1Nc1cccc(C(=O)NCCC(C)C)c1 [Compound 54, N-isopentyl-3-((2-methyl-4-(pyridin-2-ylmethoxy)phenyl)amino)benzamide] | – | 6.75 | – | 6.40 to 9.00 |
| CCc1cc(OCc2ccccn2)ccc1Nc1cccc(C(=O)NCCC(C)C)c1 [Compound 57, 3-((2-ethyl-4-(pyridin-2-ylmethoxy)phenyl)amino)-N-isopentylbenzamide] | – | 7.59 | – | 6.40 to 9.00 |
| CCc1cc(OCc2ccccn2)ccc1Nc1cccc(C(=O)NCCC2CCCC2)c1 [Compound 58, N-(2-cyclopentylethyl)-3-((2-ethyl-4-(pyridin-2-ylmethoxy)phenyl)amino)benzamide] | – | – | – | 6.40 to 9.00 |
| Cc1cc(OCc2ccccn2)ccc1Nc1cccc(C(=O)NCCC2CC(F)(F)C2)c1 [Compound 70, N-(2-(3,3-difluorocyclobutyl)ethyl)-3-((2-methyl-4-(pyridin-2-ylmethoxy)phenyl)amino)benzamide] | – | 6.18 | – | 6.40 to 9.00 |
| Cc1cc(OCc2ccccn2)ccc1Nc1cccc(C(=O)NC2CCCC2)c1 [Compound 71, N-cyclopentyl-3-((2-methyl-4-(pyridin-2-ylmethoxy)phenyl)amino)benzamide] | – | 6.73 | – | 6.40 to 9.00 |
| c1ccc(COc2ccc(Nc3cccc(OCCCC4CCCC4)c3)cc2)nc1 [Compound 73, 3-(3-cyclopentylpropoxy)-N-(4-(pyridin-2-ylmethoxy)phenyl)aniline] | 100 | – | – | – |

Source: US12421206B2, “Aryl-n-aryl derivatives for treating a RNA virus infection” (ABIVAX, priority 2018, dated 2025)
